Data published in US6355640B1, “Pyrazolopyridine adenosine antagonists” (Fujisawa Pharmaceutical Co., Ltd., priority 1993, dated 2002).

`COC(=O)C[C@H]1CC[C@H](n2nc(-c3c(-c4ccccc4)nn4ccccc34)ccc2=O)C1` (relative stereo) [Example 32, trans-3-[2-(3-Methoxycarbonylmethylcyclopentyl)-3-oxo-2,3-dihydropyridazin-6-yl]-2-phenylpyrazolo[1,5-a]-pyridine] showed a melting point of 105 to 107 °C.

`CCOC(=O)C[C@@H]1CCCC[C@H]1n1nc(-c2c(-c3ccccc3)nn3ccccc23)ccc1=O` (relative stereo) [Example 33(1), trans-3-[2-(2-Ethoxycarbonylmethylcyclohexyl)-3-oxo-2,3-dihydropyridazin-6-yl]-2-phenylpyrazolo[1,5-a]-pyridine] showed a melting point of 172 to 173 °C.

Work on `CCOC(=O)C[C@H]1CCCC[C@H]1n1nc(-c2c(-c3ccccc3)nn3ccccc23)ccc1=O` (relative stereo) [Example 33(2), cis-3-[2-(2-Ethoxycarbonylmethylcyclohexyl)-3-oxo-2,3-dihydropyridazin-6-yl]-2-phenylpyrazolo[1,5-a]pyridine] yielded a melting point of 151 to 152 °C.

Work on `C[C@@]1(O)CCCC[C@H]1n1nc(-c2c(-c3ccccc3)nn3ccccc23)ccc1=O` (relative stereo) [Example 35, 3-[2-{(1R*,2R*)-2-hydroxy-2-methylcyclohexyl}-3-oxo-2,3-dihydropyridazin-6-yl]-2-phenylpyrazolo[1,5-a]-pyridine] yielded a melting point of 197 to 198 °C.

For `O=C(O)C[C@H]1CCCC[C@H]1n1nc(-c2c(-c3ccccc3)nn3ccccc23)ccc1=O` (relative stereo) [Example 38, cis-3-[2-(2-carboxymethylcyclohexyl)-3-oxo-2,3-dihydropyridazin-6-yl]-2-phenylpyrazolo[1,5-a]pyridine], the melting point was 252 to 253 °C.

Molecule `O=C(O)C[C@@H]1CCCC[C@H]1n1nc(-c2c(-c3ccccc3)nn3ccccc23)ccc1=O` (relative stereo) [Example 39, trans-3-[2-(2-Carboxymethylcyclohexyl)-3-oxo-2,3-dihydropyridazin-6-yl]-2-phenylpyrazolo[1,5-a]pyridine] has a melting point of 238 to 240 °C.

Work on `O=C(O)C[C@H]1CC[C@H](n2nc(-c3c(-c4ccccc4)nn4ccccc34)ccc2=O)C1` (relative stereo) [Example 40, trans-3-[2-(3-Carboxymethylcyclopentyl)-3-oxo-2,3-dihydropyridazin-6-yl]-2-phenylpyrazolo[1,5-a]pyridine] yielded a melting point of 212 to 213 °C.

`O=C(O)[C@H]1CCC[C@H](n2nc(-c3c(-c4ccccc4)nn4ccccc34)ccc2=O)C1` (relative stereo) [Example 41, trans-3-(2-(3-Carboxycyclohexyl)-3-oxo-2,3-dihydropyridazin-6-yl]-2-phenylpyrazolo[1,5-a]pyridine] showed a melting point of 218 to 222 °C.

With `O=C1CCCCC1Oc1ccc(-c2c(-c3ccccc3)nn3ccccc23)nn1` (single isomer, unassigned) [Example 2 (less polar compound), 3-[3-(2-Oxocyclohexyl)oxypyridazin-6-yl]-2-phenylpyrazolo[1,5-a]pyridine] the melting point was 214 to 216 °C.

`O=C1CCCCC1n1nc(-c2c(-c3ccccc3)nn3ccccc23)ccc1=O` (single isomer, unassigned) [Example 2 (more polar compound), 3-[2-(2-oxocyclohexyl)-3-oxo-2,3-dihydropyridazin-6-yl]-2-phenylpyrazolo[1,5-a]pyridine] gave a melting point of 166 to 168 °C.

In the case of `O=c1ccc(-c2c(-c3ccccc3)nn3ccccc23)nn1C1CCCCC1` [Example 1, 3-(2-cyclohexyl-3-oxo-2,3-dihydropyridazin-6-yl)-2-phenylpyrazolo[1,5-a]pyridine], the melting point is reported as 115 to 117 °C.

In the case of `O=C1CCCCCC1n1nc(-c2c(-c3ccccc3)nn3ccccc23)ccc1=O` (centres unmarked) [Example 11, 3-[2-(2-Oxocycloheptyl)-3-oxo-2,3-dihydropyridazin-6-yl]-2-phenylpyrazolo[1,5-a]pyridine], the melting point is reported as 112 to 114 °C.

In the case of `O=c1ccc(-c2c(-c3ccccc3)nn3ccccc23)nn1C1CCC2(CC1)OCCO2` [Example 21, 3-[2-(4,4-Ethylenedioxycyclohexyl)-3-oxo-2,3-dihydropyridazin-6-yl]-2-phenylpyrazolo[1,5-a]pyridine], the melting point is reported as 189 to 190 °C.

With `O=C1NCCC1n1nc(-c2c(-c3ccccc3)nn3ccccc23)ccc1=O` (centres unmarked) [Example 23, 3-[2-(2-Oxopyrrolidin-3-yl)-3-oxo-2,3-dihydropyridazin-6-yl]-2-phenylpyrazolo[1,5-a]pyridine] the melting point was 133 to 134 °C (dec.).

`O=C1OCCC1n1nc(-c2c(-c3ccccc3)nn3ccccc23)ccc1=O` (centres unmarked) [Example 25, 3-[2-(2-Oxo-2,3,4,5-tetrahydrofuran-3-yl)-3-oxo-2,3-dihydropyridazin-6-yl]-2-phenylpyrazolo[1,5-a]pyridine] showed a melting point of 179 to 180 °C.

For `O=C1NCCCC1n1nc(-c2c(-c3ccccc3)nn3ccccc23)ccc1=O` (centres unmarked) [Example 26, 3-[2-(2-Oxopiperidin-3-yl)-3-oxo-2,3-dihydropyridazin-6-yl]-2-phenylpyrazolo[1,5-a]pyridine], the melting point was 140 to 145 °C (dec.).

Work on `CCCn1c(-n2nc(-c3c(-c4ccccc4)nn4ccccc34)ccc2=O)cc(=O)n(CCC)c1=O` [Example 27, 3-[2-(1,3-Dipropyl-2,4-dioxo-1,2,3,4-tetrahydropyrimidin-6-yl)-3-oxo-2,3-dihydropyridazin-6-yl]-2-phenylpyrazolo[1,5-a]pyridine] yielded a melting point of 155.3 °C.

In the case of `CCCn1c(=O)cc(-n2nc(-c3c(-c4ccccc4)nn4ccccc34)ccc2=O)n(CC(=O)OC)c1=O` [Example 28, 3-[2-(2,4-Dioxo-1-methoxycarbonylmethyl-3-propyl-1,2,3,4-tetrahydropyrimidin-6-yl)-3-oxo-2,3-dihydropyridazin-6-yl]-2-phenylpyrazolo[1,5-a]pyridine], the melting point is reported as 143 to 145 °C.

With `CCCn1c(-n2nc(-c3c(-c4ccccc4)nn4ccccc34)ccc2=O)cc(=O)n(CC(=O)OC)c1=O` [Example 29, 3-[2-(2,4-Dioxo-3-methoxycarbonylmethyl-1-propyl-1,2,3,4-tetrahydropyrimidin-6-yl)-3-oxo-2,3-dihydropyridazin-6-yl]-2-phenylpyrazolo[1,5-a]pyridine] the melting point was 191 to 195 °C.

With `COC(=O)/C=C1\CCCCC1n1nc(-c2c(-c3ccccc3)nn3ccccc23)ccc1=O` (centres unmarked) [Example 31, (E)-3-[2-(2-methoxycarbonylmethylenecyclohexyl)-3-oxo-2,3-dihydropyridazin-6-yl]-2-phenylpyrazolo[1,5-a]pyridine] the melting point was 156 to 157 °C.

`O=C(O)CN1CCC(n2nc(-c3c(-c4ccccc4)nn4ccccc34)ccc2=O)C1=O` (centres unmarked) [Example 42, 3-[2-(1-Carboxymethyl-2-oxo-pyrrolidin-3-yl)-3-oxo-2,3-dihydropyridazin-6-yl]-2-phenylpyrazolo[1,5-a]pyridine] showed a melting point of 250 to 251 °C.

Molecule `CN(CC(=O)O)C(=O)CC1=C(n2nc(-c3c(-c4ccccc4)nn4ccccc34)ccc2=O)CCCC1` [Example 43, 3-[2-{2-(N-carboxymethyl-N-methylcarbamoyl)methyl-1-cyclohexenyl}-3-oxo-2,3-dihydropyridazin-6-yl]-2-phenylpyrazolo[1,5-a]pyridine] has a melting point of 135 to 138 °C.

`O=C(O)CCCNC(=O)CC1=C(n2nc(-c3c(-c4ccccc4)nn4ccccc34)ccc2=O)CCCC1` [Example 46, 3-[2-(2-(N-(3-Carboxypropyl)carbamoyl)methyl-1-cyclohexenyl)-3-oxo-2,3-dihydropyridazin-6-yl]-2-phenylpyrazolo[1,5-a]pyridine] showed a melting point of 92.5 to 93 °C.

Work on `O=c1ccc(-c2c(-c3ccccc3)nn3ccccc23)nn1[C@H]1CC[C@@H](C(=O)O)CC1` [Example 47(1), cis-3-[2-(4-Carboxycyclohexyl)-3-oxo-2,3-dihydropyridazin-6-yl]-2-phenylpyrazolo[1,5-a]pyridine] yielded a melting point of 296 to 298 °C.

Work on `O=C(O)C=C1CCC(n2nc(-c3c(-c4ccccc4)nn4ccccc34)ccc2=O)CC1` (centres unmarked) [Example 51, 3-[2-(4-Carboxymethylenecyclohexyl)-3-oxo-2,3-dihydropyridazin-6-yl]-2-phenylpyrazolo[1,5-a]pyridine] yielded a melting point of 188 to 190 °C.

`O=C(O)CCC1=C(n2nc(-c3c(-c4ccccc4)nn4ccccc34)ccc2=O)CCCC1` [Example 52, 3-[2-{2-(2-carboxyethyl)-1-cyclohexenyl}-3-oxo-2,3-dihydropyridazin-6-yl]-2-phenylpyrazolo[1,5-a]-pyridine] gave a melting point of 184 to 185 °C.

`O=C(O)CCCC1=C(n2nc(-c3c(-c4ccccc4)nn4ccccc34)ccc2=O)CCCC1` [Example 53, 3-[2-{2-(3-Carboxypropyl)-1-cyclohexenyl}-3-oxo-2,3-dihydropyridazin-6-yl]-2-phenylpyrazolo[1,5-a]pyridine] showed a melting point of 145 to 147 °C.

`O=C(O)CNC(=O)CC1=C(n2nc(-c3c(-c4ccccc4)nn4ccccc34)ccc2=O)CCCC1` [Example 55, 3-[2-{2-(N-Carboxymethylcarbamoyl)methyl-1-cyclohexenyl}-3-oxo-2,3-dihydropyridazin-6-yl]-2-phenylpyrazolo[1,5-a]pyridine] showed a melting point of 190 to 192 °C.

In the case of `O=C(O)CON=C1CCCCC1n1nc(-c2c(-c3ccccc3)nn3ccccc23)ccc1=O` (centres unmarked) [Example 57, 3-[2-(2-Carboxymethoxyiminocyclohexyl)-3-oxo-2,3-dihydropyridazin-6-yl]-2-phenylpyrazolo[1,5-a]pyridine], the melting point is reported as 208 °C (dec.).

In the case of `O=C(CCC1=C(n2nc(-c3c(-c4ccccc4)nn4ccccc34)ccc2=O)CCCC1)OCc1ccccc1` [Example 66, 3-[2-{2-(2-benzyloxycarbonylethyl)-1-cyclohexenyl}-3-oxo-2,3-dihydropyridazin-6-yl]-2-phenylpyrazolo[1,5-a]pyridine], the melting point is reported as 111 to 113 °C.

With `CCOC(=O)CN(C)C(=O)CC1=C(n2nc(-c3c(-c4ccccc4)nn4ccccc34)ccc2=O)CCCC1` [Example 68, 3-[2-{2-(N-ethoxycarbonylmethyl-N-methylcarbamoyl)methyl-1-cyclohexenyl}-3-oxo-2,3-dihydropyridazin-6-yl]-2-phenylpyrazolo[1,5-a]pyridine] the melting point was 56 to 60 °C.

Molecule `NC(=O)CC1=C(n2nc(-c3c(-c4ccccc4)nn4ccccc34)ccc2=O)CCCC1` [Example 69, 3-[2-(2-Carbamoylmethyl-1-cyclohexenyl)-3-oxo-2,3-dihydropyridazin-6-yl]-2-phenylpyrazolo[1,5-a]pyridine] has a melting point of 204 to 205 °C.
